Structures are written as SMILES. Where a name gives a salt, the structure may show the parent alone.

Sequence of HSET full length protein (Q9BW19 whole entry): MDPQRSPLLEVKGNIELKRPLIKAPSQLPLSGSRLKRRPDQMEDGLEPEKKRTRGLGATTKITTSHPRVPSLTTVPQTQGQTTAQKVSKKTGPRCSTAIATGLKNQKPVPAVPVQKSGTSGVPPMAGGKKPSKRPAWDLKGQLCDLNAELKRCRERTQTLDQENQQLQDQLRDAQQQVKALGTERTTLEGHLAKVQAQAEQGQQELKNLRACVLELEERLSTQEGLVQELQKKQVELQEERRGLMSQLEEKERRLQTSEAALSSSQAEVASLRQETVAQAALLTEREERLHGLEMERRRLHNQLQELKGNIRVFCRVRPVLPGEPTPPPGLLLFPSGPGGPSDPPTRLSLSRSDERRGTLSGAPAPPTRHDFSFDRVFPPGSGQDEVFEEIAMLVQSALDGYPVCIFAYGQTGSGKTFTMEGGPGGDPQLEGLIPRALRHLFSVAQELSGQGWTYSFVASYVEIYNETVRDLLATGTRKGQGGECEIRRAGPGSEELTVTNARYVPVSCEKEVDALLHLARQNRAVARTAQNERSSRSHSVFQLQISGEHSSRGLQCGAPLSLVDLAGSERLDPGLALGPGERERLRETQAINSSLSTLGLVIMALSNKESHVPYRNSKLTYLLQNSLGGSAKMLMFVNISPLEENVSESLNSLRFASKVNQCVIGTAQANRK

This assay has as its target HSET full length protein (Homo sapiens (Human), UniProt Q9BW19). As to the kind of experiment: HSET ADP-Glo Assay S - 3 μM ATP. Particulars: 5 nM HSET, 70 μg/mL microtubule, 80 min at rt, read-out: COMBINED HSET ADP GLO IC50. Format: biochemical. A digest of the protocol:
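ADP-Glo luminescence read-out: ATPase reaction at 3 μM ATP, 80 min at room temperature, after a 10 min compound preincubation. Enzyme was full-length human HSET at 5 nM, stimulated by 70 μg/mL paclitaxel-stabilised bovine microtubules in HEPES pH 6.8 buffer with MgCl2, EGTA, Triton X-100 and DTT.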
On to `CCOC(=O)c1sc(NC(=O)C(C)CNC(=O)c2cccc(-c3noc(C)n3)c2)nc1C` (stereo not shown) [Example 145, Ethyl-4-methyl-2-(2-methyl-3-(3-(5-methyl-1,2,4-oxadiazol-3-yl)benzamido)propanamido)thiazole-5-carboxylate], for which the IC50 – broadly, the concentration needed to halve the response being measured – worked out at 5480 nM.

Consider `CCOC(=O)c1sc(NC(=O)CC(NC(=O)c2cccc(-c3noc(C)n3)c2)C2CCNCC2)nc1C` (stereo not shown) [Example 146, 4-(3-((5-(ethoxycarbonyl)-4-methylthiazol-2-yl)amino)-1-(3-(5-methyl-1,2,4-oxadiazol-3-yl)benzamido)-3-oxopropyl)piperidin-1-ium formate], for which the half-inhibitory concentration (IC50) was 260 nM.

For `CCOC(=O)c1sc(NC(=O)CC(NC(=O)c2cccc(-c3noc(C)n3)c2)C2CCN(C)CC2)nc1C` (stereo not shown) [Example 147, 4-(3-((5-(ethoxycarbonyl)-4-methylthiazol-2-yl)amino)-1-(3-(5-methyl-1,2,4-oxadiazol-3-yl)benzamido)-3-oxopropyl)-1-methylpiperidin-1-ium formate], the IC50 was determined as 291 nM.

With `CCOC(=O)c1sc(NC(=O)C[C@H](CN)NC(=O)c2cccc(-c3noc(C)n3)c2)nc1C` [Example 148, Ethyl-2-[[(3R)-4-amino-3-[[3-(5-methyl-1,2,4-oxadiazol-3-yl)benzoyl]amino]butanoyl]amino]-4-methyl-thiazole-5-carboxylate], the IC50 worked out at 133 nM.

For the molecule `CCOC(=O)c1sc(NC(=O)[C@H]2CNC[C@@H]2NC(=O)c2cccc(-c3noc(C)n3)c2)nc1C` [Example 149, Ethyl-4-methyl-2-[[(3S,4R)-4-[[3-(5-methyl-1,2,4-oxadiazol-3-yl)benzoyl]amino]pyrrolidine-3-carbonyl]amino]thiazole-5-carboxylate; formic acid], the IC50 stood at 2800 nM.

For `CCOC(=O)c1sc(NC(=O)C[C@H](CCCN)NC(=O)c2cccc(-c3noc(C)n3)c2)nc1C` [Example 150, ethyl (S)-2-(6-amino-3-(3-(5-methyl-1,2,4-oxadiazol-3-yl)benzamido)hexanamido)-4-methylthiazole-5-carboxylate], the IC50 was found to be 57 nM.

With `CCCOC(=O)c1sc(NC(=O)C[C@H](CCCN)NC(=O)c2cccc(-c3noc(C)n3)c2)nc1C` [Example 151, Popyl-(S)-2-(6-amino-3-(3-(5-methyl-1,2,4-oxadiazol-3-yl)benzamido)hexanamido)-4-methylthiazole-5-carboxylate], the IC50 stood at 13 nM.

Turning to `CCCOC(=O)c1sc(NC(=O)C[C@H](CCCNC)NC(=O)c2cccc(-c3noc(C)n3)c2)nc1C` [Example 152, Propyl 4-methyl-2-[[(3S)-6-(methylamino)-3-[[3-(5-methyl-1,2,4-oxadiazol-3-yl)benzoyl]amino]hexanoyl]amino]thiazole-5-carboxylate], the IC50 is 19 nM.

In the case of `CCCOC(=O)c1sc(NC(=O)C[C@@H](CCCNC)NC(=O)c2cccc(-c3noc(C)n3)c2)nc1C` [Example 153, Propyl-(R)-4-methyl-2-(3-(3-(5-methyl-1,2,4-oxadiazol-3-yl)benzamido)-6-(methylamino)hexanamido)thiazole-5-carboxylate], the IC50 is 285 nM.

Turning to `CNCCC[C@@H](CC(=O)Nc1nc(C)c(C(=O)OC(C)(C)C)s1)NC(=O)c1cccc(-c2noc(C)n2)c1` [Example 154, Tert-butyl 4-methyl-2-[[(3S)-6-(methylamino)-3-[[3-(5-methyl-1,2,4-oxadiazol-3-yl)benzoyl]amino]hexanoyl]amino]thiazole-5-carboxylate], the IC50 stood at 6 nM.

Regarding `CNCCC[C@@H](CC(=O)Nc1nc(C)c(C(=O)OC2CCCC2)s1)NC(=O)c1cccc(-c2noc(C)n2)c1` [Example 155, Cyclopentyl (S)-4-methyl-2-(3-(3-(5-methyl-1,2,4-oxadiazol-3-yl)benzamido)-6-(methylamino)hexanamido)thiazole-5-carboxylate], the half-maximal inhibitory concentration (IC50) worked out at 11 nM.

As to `CNCCC[C@@H](CC(=O)Nc1nc(C)c(C(=O)OC(C)C)s1)NC(=O)c1cccc(-c2noc(C)n2)c1` [Example 156, Isopropyl (S)-4-methyl-2-(3-(3-(5-methyl-1,2,4-oxadiazol-3-yl)benzamido)-6-(methylamino)hexanamido)thiazole-5-carboxylate], the concentration for half-maximal inhibition (IC50) was 53 nM.

As to `CNCCC[C@@H](CC(=O)Nc1nc(C)c(C(C)(C)C)s1)NC(=O)c1cc(Cl)cc(-c2noc(C)n2)c1` [Example 157, (S)-N-(1-((5-(tert-butyl)-4-methylthiazol-2-yl)amino)-6-(methylamino)-1-oxohexan-3-yl)-3-chloro-5-(5-methyl-1,2,4-oxadiazol-3-yl)benzamide], the half-maximal inhibitory concentration (IC50) is 373 nM.

Regarding `CCCOC(=O)c1sc(NC(=O)C[C@H](CCCN(C)C)NC(=O)c2cccc(-c3noc(C)n3)c2)nc1C` [Example 158, Propyl (S)-2-(6-(dimethylamino)-3-(3-(5-methyl-1,2,4-oxadiazol-3-yl)benzamido)hexanamido)-4-methylthiazole-5-carboxylate], the IC50 is 11 nM.

In the case of `CCCOC(=O)c1sc(NC(=O)C[C@H](CCCN2CCOCC2)NC(=O)c2cccc(-c3noc(C)n3)c2)nc1C` [Example 159, Propyl (S)-4-methyl-2-(3-(3-(5-methyl-1,2,4-oxadiazol-3-yl)benzamido)-6-morpholinohexanamido)thiazole-5-carboxylate], the IC50 amounted to 21 nM.

In the case of `CCCOC(=O)c1sc(NC(=O)C[C@H](CCN(C)C)NC(=O)c2cccc(-c3noc(C)n3)c2)nc1C` [Example 162, Propyl (S)-2-(5-(dimethylamino)-3-(3-(5-methyl-1,2,4-oxadiazol-3-yl)benzamido)pentanamido)-4-methylthiazole-5-carboxylate], the 50% inhibitory concentration (IC50) came to 558 nM.

For the molecule `CCCOC(=O)c1sc(NC(=O)C[C@H](CCCN)Nc2nccc3ccc(-c4noc(C)n4)cc23)nc1C` [Example 163, Propyl (S)-2-(6-amino-3-((7-(5-methyl-1,2,4-oxadiazol-3-yl)isoquinolin-1-yl)amino)hexanamido)-4-methylthiazole-5-carboxylate], the IC50 is 13 nM.

`Cc1nc(-c2ccc3ccnc(N[C@@H](CCCN)CC(=O)Nc4nc(C)c(C(C)(C)C)s4)c3c2)no1` [Example 164, (S)-6-amino-N-(5-(tert-butyl)-4-methylthiazol-2-yl)-3-((7-(5-methyl-1,2,4-oxadiazol-3-yl)isoquinolin-1-yl)amino)hexanamide formate]: the 50% inhibitory concentration (IC50) stood at 116 nM.

With `CNCCC[C@@H](CC(=O)Nc1nc(C)c(C(=O)OC2CCCC2)s1)Nc1nccc2ccc(-c3noc(C)n3)cc12` [Example 165, Cyclopentyl (S)-4-methyl-2-(3-((7-(5-methyl-1,2,4-oxadiazol-3-yl)isoquinolin-1-yl)amino)-6-(methylamino)hexanamido)thiazole-5-carboxylate], the IC50 worked out at 23 nM.

As to `CNCCC[C@@H](CC(=O)Nc1nc(C)c(C(=O)OC(CF)CF)s1)Nc1nccc2ccc(-c3noc(C)n3)cc12` [Example 166, 1,3-Difluoropropan-2-yl (S)-4-methyl-2-(3-((7-(5-methyl-1,2,4-oxadiazol-3-yl)isoquinolin-1-yl)amino)-6-(methylamino)hexanamido)thiazole-5-carboxylate], the half-maximal inhibitory concentration (IC50) is 11 nM.

Take `CNCCC[C@@H](CC(=O)Nc1nc(C)c(C(=O)OC(C)C)s1)Nc1nccc2ccc(-c3noc(C)n3)cc12` [Example 167, Isopropyl (S)-4-methyl-2-(3-((7-(5-methyl-1,2,4-oxadiazol-3-yl)isoquinolin-1-yl)amino)-6-(methylamino)hexanamido)thiazole-5-carboxylate]: the IC50 is 10 nM.

Consider `CNCCC[C@@H](CC(=O)Nc1nc(C)c(C(=O)OC(C)(C)C)s1)Nc1nccc2ccc(-c3noc(C)n3)cc12` [Example 168, tert-Butyl (S)-4-methyl-2-(3-((7-(5-methyl-1,2,4-oxadiazol-3-yl)isoquinolin-1-yl)amino)-6-(methylamino)hexanamido)thiazole-5-carboxylate], for which the IC50 was found to be 3 nM.

In the case of `CNCCC[C@@H](CC(=O)Nc1nc(C)c(C(=O)O)s1)Nc1nccc2ccc(-c3noc(C)n3)cc12` [Example 169, (S)-4-methyl-2-(3-((7-(5-methyl-1,2,4-oxadiazol-3-yl)isoquinolin-1-yl)amino)-6-(methylamino)hexanamido)thiazole-5-carboxylic acid], the IC50 was 265 nM.

Turning to `CNCCC[C@@H](CC(=O)Nc1nc(C)c(C(=O)OC2CCC(F)(F)C2)s1)Nc1nccc2ccc(-c3noc(C)n3)cc12` (stereo partly drawn) [Example 170, 3,3-Difluorocyclopentyl 4-methyl-2-((S)-3-((7-(5-methyl-1,2,4-oxadiazol-3-yl)isoquinolin-1-yl)amino)-6-(methylamino)hexanamido)thiazole-5-carboxylate], the IC50 came out at 4 nM.

In the case of `CNCCC[C@@H](CC(=O)Nc1nc(C)c(C(C)(C)C)s1)Nc1nccc2ccc(-c3noc(C)n3)cc12` [Example 171, (S)-N-(5-(tert-butyl)-4-methylthiazol-2-yl)-3-((7-(5-methyl-1,2,4-oxadiazol-3-yl)isoquinolin-1-yl)amino)-6-(methylamino)hexanamide], the IC50 came to 149 nM.

For `CCCOC(=O)c1sc(NC(=O)C[C@H](CCCNC)Nc2nccc3ccc(-c4noc(C)n4)cc23)nc1C` [Example 172, Propyl (S)-4-methyl-2-(3-((7-(5-methyl-1,2,4-oxadiazol-3-yl)isoquinolin-1-yl)amino)-6-(methylamino)hexanamido)thiazole-5-carboxylate], the IC50 was 6 nM.

For the molecule `CCCOC(=O)c1sc(NC(=O)[C@H](N)CNC(=O)c2cccc(-c3noc(C)n3)c2)nc1C` [Example 173, Propyl (R)-2-(2-amino-3-(3-(5-methyl-1,2,4-oxadiazol-3-yl)benzamido)propanamido)-4-methylthiazole-5-carboxylate formate], the IC50 turned out to be 63 nM.

In the case of `CCCOC(=O)c1sc(NC(=O)[C@@H](N)CNc2nccc3ccc(-c4noc(C)n4)cc23)nc1C` [Example 174, Propyl (S)-2-(2-amino-3-((7-(5-methyl-1,2,4-oxadiazol-3-yl)isoquinolin-1-yl)amino)propanamido)-4-methylthiazole-5-carboxylate], the IC50 turned out to be 8 nM.

The values above are taken from US20250084074A1, “SUBSTITUTED HETEROCYCLES AS HSET INHIBITORS” (MERCK PATENT GMBH, priority 2022, published 2025).
